Results from patent US20250262331A1, “COMPOSITION AND METHODS FOR IMPROVING SIGNS AND SYMPTOMS OF OCULAR DISORDERS” (Azura Ophthalmics Ltd., priority 2022, published 2025).

Test system: sebaceous cells
Experiment: Preclinical sebum production in sebaceous cells
Type: cell-based
Details: preclinical data; lower effect observed at higher concentrations

S=[Se]=S [selenium disulfide]
effect on sebum production in sebaceous cells: non-linear dose response
